Columns and labels:
Mus musculus [1] = assay: Concentration required to protect 50 % of mice against hind limb extensor component in MES test when administered intraperitoneally; assay type: functional; settings: Hindlimb, ip
Mus musculus [2] = assay: Concentration required to protect 50 % of mice against hind limb extensor component in MES test when administered intravenously; assay type: functional; settings: Hindlimb, iv
Mus musculus [3] = assay: Concentration required to protect 50 % of mice against hind limb extensor component in MES test when administered perorally; assay type: functional; settings: Hindlimb, po
Rattus norvegicus [4] = assay: Compound was evaluated for the anticonvulsant activity by testing its ability to protect against maximal electroshock- induced seizures in rats; Intraperitoneal administration (ip); assay type: functional
Rattus norvegicus [5] = assay: Compound was evaluated for the anticonvulsant activity by testing its ability to protect against maximal electroshock- induced seizures in rats; Intravenous administration (iv); assay type: functional
Rattus norvegicus [6] = assay: Compound was evaluated for the anticonvulsant activity by testing its ability to protect against maximal electroshock- induced seizures in rats after peroral administration (po); assay type: functional
[7] = (§1) Compound was evaluated for the anticonvulsant activity in rats.; assay type: organism-based; settings: rat, in vivo
Rattus norvegicus [8] = species on record: Rattus norvegicus; assay: as §1; assay type: organism-based; settings: in vivo
Rattus norvegicus [9] = assay: Compound was evaluated for the anticonvulsant activity by testing its ability to protect against maximal electroshock- induced seizures in rats; Peroral administration (po); assay type: functional

| SMILES | ED50 (Mus musculus [1]) | ED50 (Mus musculus [2]) | ED50 (Mus musculus [3]) | ED50 (Rattus norvegicus [4]) | ED50 (Rattus norvegicus [5]) | ED50 (Rattus norvegicus [6]) | LD50 [7] | LD50 (Rattus norvegicus [8]) | ED50 (Rattus norvegicus [9]) |
| --- | --- | --- | --- | --- | --- | --- | --- | --- | --- |
| CNc1ncnc2c1ncn2Cc1ccccc1F [BW-A78U] | 5 mg/kg | 4 mg/kg | 14 mg/kg | 1.7 mg/kg | 0.2 mg/kg | 2.5 mg/kg | > 1000 mg/kg | > 500 mg/kg | – |
| O=C1NC(=O)C(c2ccccc2)(c2ccccc2)N1 [PHENYTOIN] | 9 mg/kg | 1.8 mg/kg | 22 mg/kg | 10 mg/kg | 4 mg/kg | – | – | – | 20 mg/kg |

— ChEMBL document CHEMBL1123297, “9-(2-Fluorobenzyl)-6-(methylamino)-9H-purine hydrochloride. Synthesis and anticonvulsant activity” (J Med Chem, 1986)
